System: ST88-14 cells
Assay: ST88-14 tumor growth in nude mice
Format: in vivo, nude CD1-Nu male mice
Conditions: six weeks
Description: ST88-14 cells (5×10^6) in Matrigel were implanted subcutaneously (s.c.) just above the right femoral joint of nude CD1-Nu male mice (6 weeks old). Two weeks later palpable tumors were observed and the mice were separated randomly into vehicle-treated control and FTS-treated groups. Two types of treatment protocols were used. (1) The first protocol was intraperitoneal (i.p.) administration (0.1 mL) of vehicle, 1 mg/kg, 5 mg/kg or 10 mg/kg FTS (n=6 per group). The FTS solution was prepared in saline containing phosphate buffer as described in Haklai, et al., supra. (2) The second protocol was oral administration of FTS. Mice received vehicle or 20, 40, 60, or 80 mg/kg FTS (n=10 per group). The FTS mixture for oral administration was prepared in PBS/0.5% carboxymethyl cellulose. Mice were sacrificed 6 weeks after the start of the treatment, and tumors were removed and weighed. Student's t-test was used for data analysis.
[Ozerdem, U., Angiogenesis 7:307-11 (2004)]. Thus, to determine whether FTS inhibited tumor growth in the nude mouse model, two types of treatments were preformed. The first was i.p. administration of 1, 5, or 10 mg/kg FTS, as earlier described. [Weisz, B., et al., supra.]. The second was oral administration, which required higher FTS doses of 20, 40, 60, and 80 mg/kg. Six weeks after the treatment the mice were sacrificed and tumors were removed and weighed.

`CC(C)=CCC/C(C)=C/CC/C(C)=C/CSc1ccccc1C(=O)O` [FTS, S-farnesylthiosalicylic acid] was tested, and the “inhibition of tumor growth (tumor weight)” value (i.p., 10 mg/kg FTS, P<0.05) was 49%, the “tumor growth, dose dependence” value (i.p., 1, 5, or 10 mg/kg FTS) was “dose-dependent inhibition of tumor growth” and the “inhibition of tumor growth (tumor weight)” value (oral, 80 mg/kg FTS, P<0.01) was 58%. The “tumor growth, dose dependence” value (oral, 20, 40, 60, and 80 mg/kg FTS) was “dose-dependent inhibition of tumor growth”.

— US20110046223A1, “TREATMENT OF NEUROFIBROMATOSIS” (RAMOT AT TEL-AVIV UNIVERSITY LTD., priority 2006, published 2011)
